In brackets after ≈: the same amount, converted by molar mass.
Tests used:
Experiment in all cases: minimum inhibitory concentration, agar dilution assay
Assay type in all cases: cell-based
Alcaligenes faecalis A 1 = conditions: A1, agar dilution, 35° C., 20 hours, read-out: minimum inhibitory concentration
Protocol: (§1) The antibiotic activities shown in Tables I-1 to I-8 above were determined in the following manner.
(§2) The minimum inhibitory concentrations of the compounds of formula (I-a-1) or (I-b-1) in Tables I-1 to I-7 and the known compounds in Table I-8 on the various microorganisms shown in the above tables were measured by an agar dilution assay method using a brain heart infusion agar medium "Difco" (a product of Difco Laboratories Inc.)
(§3) A sample of the test compound was dissolved in sterile distilled water and diluted to prepare a two-fold dilution series of the compound solution. In a petri plate of 9 cm diameter, 1 ml of the compound solution was added to 9 ml of molten sterile heart infusion agar medium (Difco Laboratories Inc.) at about 60° C. to prepare the compound-containing agar plate. An overnight culture of each test organism indicated in the above table which was prepared by stationary cultivation in Trypto-Soy broth (Eiken Chemi. Co., Ltd.) at 35° C. for 18 to 20 hours, was diluted with the Trypto-Soy broth to give approximately 10^8 cells/ml and the diluted inoculum was inoculated onto the compound-containing agar plates. After cultivating the plates at 35° C. for 20 hours, the growth of the organism was observed. The minimum concentration of the compound at which no growth of the microorganism was noted was determined, and defined as the minimum inhibitory concentration of the test compound.

[1] = test system: Bacillus subtilis ATCC 6633; conditions: ATCC6633, agar dilution, 35° C., 20 hours, read-out: minimum inhibitory concentration
Protocol: as §1, §2, §3

[2] = test system: Citrobacter freundii GN 346; conditions: GN346, agar dilution, 35° C., 20 hours, read-out: minimum inhibitory concentration
Protocol: as §1, §2, §3

[3] = test system: Comamonas terrigena B-996; conditions: B996, agar dilution, 35° C., 20 hours, read-out: minimum inhibitory concentration
Protocol: as §1, §2, §3

[4] = test system: Enterobacter aerogenes E19; conditions: Klebsiella aerogenes, E19; agar dilution, 35° C., 20 hours; read-out: minimum inhibitory concentration
Protocol: as §1, §2, §3

Enterobacter cloacae 45 = conditions: Enterobacter cloacae, 45; agar dilution, 35° C., 20 hours; read-out: minimum inhibitory concentration
Protocol: as §1, §2, §3

Enterobacter sp. E8 = conditions: SP.E8, agar dilution, 35° C., 20 hours, read-out: minimum inhibitory concentration
Protocol: as §1, §2, §3

Escherichia coli K-12 = conditions: K12, agar dilution, 35° C., 20 hours, read-out: minimum inhibitory concentration
Protocol: as §1, §2, §3

Escherichia coli RGN 823 = conditions: RGN823, agar dilution, 35° C., 20 hours, read-out: minimum inhibitory concentration
Protocol: as §1, §2, §3

[5] = test system: Klebsiella pneumoniae K-13; conditions: K13, agar dilution, 35° C., 20 hours, read-out: minimum inhibitory concentration
Protocol: as §1, §2, §3

Proteus mirabilis P6 = conditions: P6, agar dilution, 35° C., 20 hours, read-out: minimum inhibitory concentration
Protocol: as §1, §2, §3

Proteus rettgeri P7 = conditions: Providencia rettgeri, P7; agar dilution, 35° C., 20 hours; read-out: minimum inhibitory concentration
Protocol: as §1, §2, §3

Proteus sp. P22 = conditions: agar dilution, 35° C., 20 hours; read-out: minimum inhibitory concentration
Protocol: as §1, §2, §3

Proteus vulgaris GN76 = conditions: GN76, agar dilution, 35° C., 20 hours, read-out: minimum inhibitory concentration
Protocol: as §1, §2, §3

Providencia sp. P8 = conditions: SP.P8, agar dilution, 35° C., 20 hours, read-out: minimum inhibitory concentration
Protocol: as §1, §2, §3

[6] = test system: Pseudomonas aeruginosa IFO3445; conditions: IFO3445, agar dilution, 35° C., 20 hours, read-out: minimum inhibitory concentration
Protocol: as §1, §2, §3

[7] = test system: Pseudomonas aeruginosa NCTC10490; conditions: NCTC10490, agar dilution, 35° C., 20 hours, read-out: minimum inhibitory concentration
Protocol: as §1, §2, §3

Sarcina lutea = conditions: Micrococcus luteus; agar dilution, 35° C., 20 hours; read-out: minimum inhibitory concentration
Protocol: as §1, §2, §3

Serratia marcescens S18 = conditions: S18, agar dilution, 35° C., 20 hours, read-out: minimum inhibitory concentration
Protocol: as §1, §2, §3

Serratia marcescens T55 = conditions: T55, agar dilution, 35° C., 20 hours, read-out: minimum inhibitory concentration
Protocol: as §1, §2, §3

[8] = test system: Staphylococcus aureus FDA 209P; conditions: FDA209P, agar dilution, 35° C., 20 hours, read-out: minimum inhibitory concentration
Protocol: as §1, §2, §3

[9] = test system: Staphylococcus aureus Russell; conditions: agar dilution, 35° C., 20 hours, read-out: minimum inhibitory concentration
Protocol: as §1, §2, §3

[10] = test system: Staphylococcus aureus Smith; conditions: agar dilution, 35° C., 20 hours, read-out: minimum inhibitory concentration
Protocol: as §1, §2, §3

[11] = test system: Staphylococcus epidermidis; conditions: agar dilution, 35° C., 20 hours, read-out: minimum inhibitory concentration
Protocol: as §1, §2, §3

SMILES	MIC (Alcaligenes faecalis A 1)	MIC [1]	MIC [2]	MIC [3]	MIC [4]	MIC (Enterobacter cloacae 45)	MIC (Enterobacter sp. E8)	MIC (Escherichia coli K-12)	MIC (Escherichia coli RGN 823)	MIC [5]	MIC (Proteus mirabilis P6)	MIC (Proteus rettgeri P7)	MIC (Proteus sp. P22)	MIC (Proteus vulgaris GN76)	MIC (Providencia sp. P8)	MIC [6]	MIC [7]	MIC (Sarcina lutea)	MIC (Serratia marcescens S18)	MIC (Serratia marcescens T55)	also measured
CC(O)C1C(=O)N2C(C(=O)O)=C(Sc3ccccc3)CC12 (stereo not drawn)	1.56 µg/mL (≈ 5.11 µM)	0.013 µg/mL (≈ 0.0426 µM)	100 µg/mL (≈ 327 µM)	< 0.007 µg/mL	12.5 µg/mL (≈ 40.9 µM)	12.5 µg/mL (≈ 40.9 µM)	3.13 µg/mL (≈ 10.3 µM)	3.13 µg/mL (≈ 10.3 µM)	25 µg/mL (≈ 81.9 µM)	> 100 µg/mL	12.5 µg/mL (≈ 40.9 µM)	100 µg/mL (≈ 327 µM)	> 100 µg/mL	> 100 µg/mL	3.13 µg/mL (≈ 10.3 µM)	50 µg/mL (≈ 164 µM)	50 µg/mL (≈ 164 µM)	< 0.007 µg/mL	100 µg/mL (≈ 327 µM)	100 µg/mL (≈ 327 µM)	MIC [8]: < 0.007 µg/mL; MIC [9]: 0.013 µg/mL (≈ 0.0426 µM); MIC [10]: 0.1 µg/mL (≈ 0.327 µM); MIC [11]: 0.013 µg/mL (≈ 0.0426 µM)
CCC1C(=O)N2C(C(=O)O)=C(Sc3ncccn3)CC12 (stereo not drawn) [Example 61, 3-(2-pyrimidinylthio)-6-ethyl-7-oxo-1-azabicyclo[3.2.0]hept-2-ene-2-carboxylic acid]	0.2 µg/mL (≈ 0.687 µM)	< 0.012 µg/mL	25 µg/mL (≈ 85.8 µM)	< 0.012 µg/mL	12.5 µg/mL (≈ 42.9 µM)	25 µg/mL (≈ 85.8 µM)	3.13 µg/mL (≈ 10.7 µM)	1.56 µg/mL (≈ 5.35 µM)	3.13 µg/mL (≈ 10.7 µM)	12.5 µg/mL (≈ 42.9 µM)	3.13 µg/mL (≈ 10.7 µM)	3.13 µg/mL (≈ 10.7 µM)	12.5 µg/mL (≈ 42.9 µM)	6.25 µg/mL (≈ 21.5 µM)	0.78 µg/mL (≈ 2.68 µM)	12.5 µg/mL (≈ 42.9 µM)	12.5 µg/mL (≈ 42.9 µM)	< 0.012 µg/mL	12.5 µg/mL (≈ 42.9 µM)	25 µg/mL (≈ 85.8 µM)	MIC [8]: < 0.012 µg/mL; MIC [9]: < 0.012 µg/mL; MIC [10]: 0.024 µg/mL (≈ 0.0824 µM); MIC [11]: 0.024 µg/mL (≈ 0.0824 µM)

From patent publication US4337199A, “Antibiotic β-lactam compounds, production thereof, and their use as antimicrobial agent” (Sanraku-Ocean Co., Ltd., priority 1978, dated 1982)
